Experimental findings from the NIST ThermoML archive (doi:10.1021/je200637v) are described below.

The data set in a line: activity coefficient (dimensionless); of the first substance listed, at infinite dilution; xn = mol fraction of the nth substance listed. The settings on record: Liquid, Chromatography, x1 = 0.

Numbers after ± are expanded uncertainties.

For `Cc1ccc(C)cc1` [1,4-dimethylbenzene] + CCCC[N+](C)(CCCC)CCCC.O=S(=O)([N-]S(=O)(=O)C(F)(F)F)C(F)(F)F, the activity coefficient is, setting by setting: (322.85 K) 1.51 ± 0.06; (332.65 K) 1.62 ± 0.07; (343.15 K) 1.56 ± 0.06.
For the molecule `CC(C)CO` [2-methyl-1-propanol] + CCCCCCCC[N+](C)(C)C.O=S(=O)([N-]S(=O)(=O)C(F)(F)F)C(F)(F)F, the activity coefficient was 1.87 ± 0.08 (322.85 K), 1.7 ± 0.07 (332.65 K) and 1.51 ± 0.06 (343.15 K).
For `ClC(Cl)Cl` [trichloromethane] + CCCCCCCCCC[N+](C)(C)C.O=S(=O)([N-]S(=O)(=O)C(F)(F)F)C(F)(F)F, the activity coefficient was found to be 0.65 ± 0.03 (322.85 K), 0.68 ± 0.03 (332.65 K) and 0.68 ± 0.03 (343.15 K).
On to `Cc1ccccc1` [toluene] + CCCCCCCCCC[N+](C)(C)C.O=S(=O)([N-]S(=O)(=O)C(F)(F)F)C(F)(F)F, for which the activity coefficient runs as follows: (322.85 K) 0.84 ± 0.03; (332.65 K) 0.89 ± 0.03; (343.15 K) 0.89 ± 0.03.
In the case of `CCCC=O` [butanal] + CCCCCCCCCC[N+](C)(C)C.O=S(=O)([N-]S(=O)(=O)C(F)(F)F)C(F)(F)F, the activity coefficient came to 0.47 ± 0.03 (322.85 K), 0.53 ± 0.03 (332.65 K) and 0.51 ± 0.03 (343.15 K).
The like results for `CCc1ccccc1` [ethylbenzene] + CCCC[N+](C)(CCCC)CCCC.O=S(=O)([N-]S(=O)(=O)C(F)(F)F)C(F)(F)F were, in that order, 1.56 ± 0.06, 1.64 ± 0.07 and 1.63 ± 0.07.
For the molecule `CC1CCCCC1` [methylcyclohexane] + CCCC[N+](C)(CCCC)CCCC.O=S(=O)([N-]S(=O)(=O)C(F)(F)F)C(F)(F)F, the activity coefficient (322.85 K) was 5.92 ± 0.27, the activity coefficient (332.65 K) came out at 5.91 ± 0.27 and the activity coefficient (343.15 K) came to 5.58 ± 0.26.
Taken in the same sequence, the figures for `CCN(CC)CC` [triethylamine] + CCCCCCCCCC[N+](C)(C)C.O=S(=O)([N-]S(=O)(=O)C(F)(F)F)C(F)(F)F were 2.17 ± 0.1, 2.4 ± 0.11 and 2.31 ± 0.1.
Regarding `CCc1ccccc1` [ethylbenzene] + CCCCCCCC[N+](C)(C)C.O=S(=O)([N-]S(=O)(=O)C(F)(F)F)C(F)(F)F, the activity coefficient (322.85 K) was 1.39 ± 0.05, the activity coefficient (332.65 K) amounted to 1.4 ± 0.05 and the activity coefficient (343.15 K) turned out to be 1.38 ± 0.05.
`CC1CCCC1` [methylcyclopentane] + CCCCCCCC[N+](CCCCCCCC)(CCCCCCCC)CCCCCCCC.O=S(=O)([N-]S(=O)(=O)C(F)(F)F)C(F)(F)F: the activity coefficient was found to be 0.98 ± 0.03 (322.85 K), 0.97 ± 0.03 (332.65 K) and 0.97 ± 0.03 (343.15 K).
For `c1ccccc1` [benzene] + CCCC[N+](C)(CCCC)CCCC.O=S(=O)([N-]S(=O)(=O)C(F)(F)F)C(F)(F)F, the activity coefficient is 0.9 ± 0.03 (322.85 K), 0.93 ± 0.03 (332.65 K) and 0.92 ± 0.03 (343.15 K).
Taken in the same sequence, the figures for `CC(C)OC(C)C` [diisopropyl ether] + CCCC[N+](C)(CCCC)CCCC.O=S(=O)([N-]S(=O)(=O)C(F)(F)F)C(F)(F)F were 3.31 ± 0.15, 3.35 ± 0.15 and 3.35 ± 0.15.
Taken in the same sequence, the figures for `Cc1ccccc1C` [1,2-dimethylbenzene] + CCCCCCCC[N+](C)(C)C.O=S(=O)([N-]S(=O)(=O)C(F)(F)F)C(F)(F)F were 1.24 ± 0.04, 1.26 ± 0.04 and 1.25 ± 0.04.
Taken in the same sequence, the figures for `CO` [methanol] + CCCCCCCC[N+](CCCCCCCC)(CCCCCCCC)CCCCCCCC.O=S(=O)([N-]S(=O)(=O)C(F)(F)F)C(F)(F)F were 0.65 ± 0.03, 0.76 ± 0.03 and 0.82 ± 0.03.
With `CCOCC` [diethyl ether] + CCCCCCCC[N+](C)(C)C.O=S(=O)([N-]S(=O)(=O)C(F)(F)F)C(F)(F)F, the activity coefficient reads like this: (322.85 K) 1.6 ± 0.06; (332.65 K) 1.57 ± 0.06; (343.15 K) 1.53 ± 0.06.
As to `ClCCl` [dichloromethane] + CCCCCCCCCC[N+](C)(C)C.O=S(=O)([N-]S(=O)(=O)C(F)(F)F)C(F)(F)F, the activity coefficient worked out at 0.51 ± 0.03 (322.85 K), 0.55 ± 0.03 (332.65 K) and 0.56 ± 0.03 (343.15 K).
Regarding `c1ccncc1` [pyridine] + CCCC[N+](C)(CCCC)CCCC.O=S(=O)([N-]S(=O)(=O)C(F)(F)F)C(F)(F)F, the activity coefficient (322.85 K) was found to be 0.55 ± 0.03, the activity coefficient (332.65 K) came to 0.56 ± 0.03 and the activity coefficient (343.15 K) came out at 0.56 ± 0.03.
For `CCC[N+](=O)[O-]` [1-nitropropane] + CCCC[N+](C)(CCCC)CCCC.O=S(=O)([N-]S(=O)(=O)C(F)(F)F)C(F)(F)F, the activity coefficient reads like this: (322.85 K) 0.68 ± 0.03; (332.65 K) 0.7 ± 0.03; (343.15 K) 0.68 ± 0.03.
On to `CC(C)O` [propan-2-ol] + CCCC[N+](C)(CCCC)CCCC.O=S(=O)([N-]S(=O)(=O)C(F)(F)F)C(F)(F)F, for which the activity coefficient turned out to be 1.67 ± 0.07 (322.85 K), 1.54 ± 0.06 (332.65 K) and 1.4 ± 0.05 (343.15 K).
The like results for `CCCO` [propan-1-ol] + CCCCCCCCCC[N+](C)(C)C.O=S(=O)([N-]S(=O)(=O)C(F)(F)F)C(F)(F)F were, in that order, 1.48 ± 0.06, 1.37 ± 0.05 and 1.21 ± 0.04.
For the molecule `C1CCCCCC1` [cycloheptane] + CCCCCCCC[N+](CCCCCCCC)(CCCCCCCC)CCCCCCCC.O=S(=O)([N-]S(=O)(=O)C(F)(F)F)C(F)(F)F, the activity coefficient is 2.21 ± 0.1 (322.85 K), 3.16 ± 0.14 (332.65 K) and 4.37 ± 0.2 (343.15 K).
The like results for `C#CCCCC` [1-hexyne] + CCCCCCCC[N+](C)(C)C.O=S(=O)([N-]S(=O)(=O)C(F)(F)F)C(F)(F)F were, in that order, 1.92 ± 0.08, 1.89 ± 0.08 and 1.82 ± 0.08.
Taken in the same sequence, the figures for `CCC(=O)CC` [pentan-3-one] + CCCCCCCCCC[N+](C)(C)C.O=S(=O)([N-]S(=O)(=O)C(F)(F)F)C(F)(F)F were 0.41 ± 0.03, 0.43 ± 0.03 and 0.44 ± 0.03.
The like results for `ClCCl` [dichloromethane] + CCCCCCCC[N+](CCCCCCCC)(CCCCCCCC)CCCCCCCC.O=S(=O)([N-]S(=O)(=O)C(F)(F)F)C(F)(F)F were, in that order, 0.29 ± 0.04, 0.3 ± 0.04 and 0.31 ± 0.04.
Take `CCc1ccccc1` [ethylbenzene] + CCCCCCCC[N+](CCCCCCCC)(CCCCCCCC)CCCCCCCC.O=S(=O)([N-]S(=O)(=O)C(F)(F)F)C(F)(F)F: the activity coefficient worked out at 0.59 ± 0.03 (322.85 K), 0.6 ± 0.03 (332.65 K) and 0.61 ± 0.03 (343.15 K).
For `c1ccccc1` [benzene] + CCCCCCCCCC[N+](C)(C)C.O=S(=O)([N-]S(=O)(=O)C(F)(F)F)C(F)(F)F, the activity coefficient reads like this: (322.85 K) 0.71 ± 0.03; (332.65 K) 0.73 ± 0.03; (343.15 K) 0.72 ± 0.03.
For the molecule `CC#N` [acetonitrile] + CCCCCCCC[N+](CCCCCCCC)(CCCCCCCC)CCCCCCCC.O=S(=O)([N-]S(=O)(=O)C(F)(F)F)C(F)(F)F, the activity coefficient (322.85 K) was found to be 0.5 ± 0.03, the activity coefficient (332.65 K) was 0.49 ± 0.03 and the activity coefficient (343.15 K) worked out at 0.49 ± 0.03.
Turning to `CCCCO` [butan-1-ol] + CCCCCCCC[N+](CCCCCCCC)(CCCCCCCC)CCCCCCCC.O=S(=O)([N-]S(=O)(=O)C(F)(F)F)C(F)(F)F, the activity coefficient (322.85 K) turned out to be 3.08 ± 0.14, the activity coefficient (332.65 K) amounted to 1.12 ± 0.03 and the activity coefficient (343.15 K) is 1.04 ± 0.03.
Taken in the same sequence, the figures for `CC(C)CC(C)(C)C` [2,2,4-trimethylpentane] + CCCCCCCC[N+](C)(C)C.O=S(=O)([N-]S(=O)(=O)C(F)(F)F)C(F)(F)F were 8.1 ± 0.37, 7.66 ± 0.35 and 7.14 ± 0.33.
In the case of `OCC(F)(F)F` [2,2,2-trifluoroethanol] + CCCCCCCC[N+](C)(C)C.O=S(=O)([N-]S(=O)(=O)C(F)(F)F)C(F)(F)F, the activity coefficient by setting is: (322.85 K) 0.4 ± 0.03; (332.65 K) 0.38 ± 0.03; (343.15 K) 0.35 ± 0.04.
Taken in the same sequence, the figures for `C1COCCO1` [1,4-dioxane] + CCCCCCCC[N+](C)(C)C.O=S(=O)([N-]S(=O)(=O)C(F)(F)F)C(F)(F)F were 0.62 ± 0.03, 0.62 ± 0.03 and 0.61 ± 0.03.
The like results for `CCCCCCCCCC` [decane] + CCCCCCCC[N+](CCCCCCCC)(CCCCCCCC)CCCCCCCC.O=S(=O)([N-]S(=O)(=O)C(F)(F)F)C(F)(F)F were, in that order, 2.3 ± 0.1, 2.32 ± 0.11 and 2.21 ± 0.1.
Taken in the same sequence, the figures for `OCC(F)(F)F` [2,2,2-trifluoroethanol] + CCCCCCCC[N+](CCCCCCCC)(CCCCCCCC)CCCCCCCC.O=S(=O)([N-]S(=O)(=O)C(F)(F)F)C(F)(F)F were 0.48 ± 0.03, 0.37 ± 0.03 and 0.36 ± 0.04.
With `CC1CCCC1` [methylcyclopentane] + CCCC[N+](C)(CCCC)CCCC.O=S(=O)([N-]S(=O)(=O)C(F)(F)F)C(F)(F)F, the activity coefficient reads like this: (322.85 K) 4.75 ± 0.22; (332.65 K) 4.74 ± 0.22; (343.15 K) 4.5 ± 0.21.
For `C[N+](=O)[O-]` [nitromethane] + CCCC[N+](C)(CCCC)CCCC.O=S(=O)([N-]S(=O)(=O)C(F)(F)F)C(F)(F)F, the activity coefficient by setting is: (322.85 K) 0.65 ± 0.03; (332.65 K) 0.65 ± 0.03; (343.15 K) 0.62 ± 0.03.
For the molecule `c1ccccc1` [benzene] + CCCCCCCC[N+](CCCCCCCC)(CCCCCCCC)CCCCCCCC.O=S(=O)([N-]S(=O)(=O)C(F)(F)F)C(F)(F)F, the activity coefficient runs as follows: (322.85 K) 0.4 ± 0.03; (332.65 K) 0.41 ± 0.03; (343.15 K) 0.41 ± 0.03.
With `CCCCCCCC` [octane] + CCCCCCCC[N+](C)(C)C.O=S(=O)([N-]S(=O)(=O)C(F)(F)F)C(F)(F)F, the activity coefficient (322.85 K) is 11 ± 0.51, the activity coefficient (332.65 K) turned out to be 10.3 ± 0.47 and the activity coefficient (343.15 K) is 9.47 ± 0.43.
